The target in one assay is T1, human Syk (GST-Syk) (Homo sapiens, UniProt P43405).
T1 construct: A cDNA fragment encoding human Syk openreading frame was cloned; made in house; host or cells: Sf21 insect cells (baculovirus, transfer vector pAcG2T)
Nature of the assay: Syk tyrosine kinase inhibitory assay. It counts as biochemical. The following applies: Table 11; read-out: Activity grade. From the text: [Syk Tyrosine Kinase Inhibitory Assay]
(1) Preparation of Syk Protein
A cDNA fragment encoding human Syk openreading frame was cloned from total RNA of human Burkitt's lymphoma B cell lines, Raji (American Type Culture Collection), with the use of RT-PCR method. The cDNA fragment was inserted into pAcG2T (Pharmingen, San Diego, Calif.) to construct a baculovirus transfer vector. Then the vector, together with the linearized baculovirus (BaculoGold™, Pharmingen), was used to transfect Sf21 cells (Invitrogen, San Diego, Calif.).
Generated recombinant baculovirus was cloned and amplified in Sf21 cells. Sf21 cells were infected with this amplified high titer virus to produce a chimeric protein of Syk kinase fused by glutathione-S-transferase (GST).
The resulting GST-Syk was purified with the use of glutathione column (Amersham Pharmacia Biotech AB, Uppsala, Sweden) according to the manufacturer's instruction.
(2) Synthesize of a Peptide
Next, a peptide fragment of 30 residues including two tyrosine residues, […], was synthesized by a peptide synthesizer. The N-terminal of the fragment was then biotinylated to obtain biotinylated activation loop peptide (AL).
(3) The Measurement of Syk Tyrosine Kinase Activity
All reagents were diluted with the Syk kinase assay buffer (50 mM Tris-HCl (pH 8.0), 10 mM MgCl2, 0.1 mM Na3VO4, 0.1% BSA, 1 mM DTT). First, a mixture (35 μl) including […] of GST-Syk and 0.5 μg of AL was put in each well in 96-well plates. Then 5 μl of a test compound in the presence of 2.5% dimethylsulfoxide (DMSO) was added to each well. To this mixture was added […] (10 μl) to initiate the kinase reaction. The final reaction mixture (50 μl) consists of 0.65 nM GST-Syk, 3 μM AL, 30 μM ATP, a test compound, 0.25% DMSO, and a Syk kinase assay buffer.
The mixture was incubated for 1 hr at room temperature, and the reaction was terminated by the addition of 120 μl of termination buffer (50 mM Tris-HCl (pH 8.0), 10 mMEDTA, 500 mM NaCl, 0.1% BSA). The mixture was transferred to streptavidin-coated plates and incubated for 30 min at room temperature to combine biotin-AL to the plates. After washing the plates with Tris-buffered saline (TBS) (50 mM Tris-HCl (pH 8.0), 138 mM NaCl, 2.7 mM KCl) containing 0.05% Tween-20 for 3 times, 100 μl of antibody solution consisting of 50 mM Tris-HCl (pH 8.0), 138 mM NaCl, 2.7 mM KCl, 1% BSA, 60 ng/ml anti-phosphotyrosine monoclonal antibody, 4G10 (Upstate Biotechnology), which is labeled with europium by Amersham Pharmacia's kit in advance, was added and incubated at room temperature for 60 min. After washing, 100 μl of enhancement solution (Amersham pharmacia Biotech) was added and then time-resolved fluorescence was measured by multi-label counter ARVO (Wallac Oy, Finland) at 340 nm for excitation and 615 nm for emission with 400 msec of delay and 400 msec of window.
As for `COc1ccc(-c2cc3nccn3c(Nc3cc(OC)c(OC)c(OC)c3)n2)cc1OC` [Example 12-14], the IC50 was less than 0.5 µM.
Same read-out and setting: the result for `CCSc1nc(-c2ccc(N(C)CCOC)c(OC)c2)cc2nccn12` [Example 12-50] reads less than 0.5 µM; that for `COc1cc(-c2cc3nccn3c(Nc3ccccc3)n2)ccc1OCCCN1CCOCC1` [Example 12-16], less than 0.5 µM; that for `COc1ccc(-c2cc3nccn3c(Nc3ccc4[nH]ncc4c3)n2)cc1OC` [Example 12-2], less than 0.5 µM.
Take `COc1cc(-c2cc3nccn3c(Nc3ccccc3)n2)ccc1OCCCN1CCSCC1` [Example 12-34]: the IC50 is less than 0.5 µM.
On the same count and under the same terms, the result for `COC(=O)c1ccc(Nc2nc(-c3ccc(OC)c(OC)c3)cc3nccn23)s1` [Example 12-5] reads 0.5 to 2 µM.
Still for that read-out and setting: the result for `COc1ccc(-c2cc3nccn3c(NC3=NNCS3)n2)cc1OC` [Example 12-31] reads 0.5 to 2 µM.

The same assay, now with this note: Table 13; read-out: Activity grade.
As for `COc1ccc(-c2cc3nccn3c(SCc3ccc(Cl)cc3)n2)cc1OC` [Example 14-15], the IC50 lay in the range of 0.5 to 2 µM.
On the same count and under the same terms, the result for `CCC(C)Sc1nc(-c2ccc(OC)c(OC)c2)cc2nccn12` (stereo not shown) [Example 14-20] reads less than 0.5 µM.
Still for that read-out and setting: the result for `COc1ccc(-c2cc3nccn3c(Oc3cccc(C)c3)n2)cc1OC` [Example 14-3] reads 0.5 to 2 µM; that for `COc1ccc(-c2cc3nccn3c(SC3CCCC3)n2)cc1OC` [Example 14-21], less than 0.5 µM; that for `COc1ccc(-c2cc3nccn3c(SCc3cccc(C(F)(F)F)c3)n2)cc1OC` [Example 14-13], 2 to 10 µM.
As to `CNC(=O)CSc1nc(-c2ccc(OC)c(OC)c2)cc2nccn12` [Example 14-33], the IC50 was less than 0.5 µM.
Turning to `COc1ccc(-c2cc3nccn3c(Oc3ccccc3Br)n2)cc1OC` [Example 14-4], the IC50 fell in the range of 0.5 to 2 µM.

The same assay, now with this note: Table 16; read-out: Activity grade.
As to `CCSc1nc(-c2ccc(OC)c(NCCCN(C)C)c2)cc2nccn12` [Example 17-6], the IC50 was less than 0.5 µM.
Still for that read-out and setting: the result for `CCSc1nc(-c2ccc(N(C)C)c(OC)c2)cc2nccn12` [Example 17-15] reads less than 0.5 µM.
On the same count and under the same terms, the result for `CCSc1nc(-c2ccc(OC)c(NC)c2)cc2nccn12` [Example 17-2] reads 0.5 to 2 µM; that for `CCSc1nc(-c2ccc(NCCCn3ccnc3)c(OC)c2)cc2nccn12` [Example 17-11], less than 0.5 µM.

Staying with this assay, now noted: Table 17; IC50 classes; read-out: Activity grade.
With `COc1ccc(-c2cc3nccn3c(Nc3cc(N)ccc3C(N)=O)n2)cc1OC` [Example 11], the IC50 was less than 0.5 µM.
The same measure, in the same setting: the result for `CCN(CC)CCNc1ccc(C(N)=O)c(Nc2nc(-c3ccc(OC)c(OC)c3)cc3nccn23)c1` [Example 12] reads less than 0.5 µM.

The assay is the same for the next values; noted with them: in vitro; compounds as yielded by solid phase synthesis, purity about 40 to 90%.
For `CCSc1nc(-c2ccc(S(=O)(=O)NCCN(C)C)c(OC)c2)cc2nccn12` [Example 2-8], the “Activity grade (IC50 class)” value is on record as “C-D”.
The same measure, in the same setting: the result for `COc1ccc(-c2cc3nccn3c(Sc3ccc(CC(=O)O)cc3)n2)cc1OC` [Example 13-19] reads “C-D”; that for `CCSc1nc(-c2ccc(S(=O)(=O)N3CCC(C(=O)O)CC3)c(OC)c2)cc2nccn12` [Example 2-10], “C-D”.

The assay is the same for the next values; noted with them: in vitro; compounds as yielded by solid phase synthesis, purity about 40 to 90%; read-out: Activity grade (IC50 class).
As for `COc1ccc(-c2cc3nccn3c(N3CCC(C(N)=O)CC3)n2)cc1OC` [Example 9-57], the IC50 is less than 0.5 µM.
In the case of `CCSc1nc(-c2ccc(C)c(S(=O)(=O)NCCO)c2)cc2nccn12` [Example 2-5], the IC50 is less than 0.5 µM.
On to `COc1ccc(-c2cc3nccn3c(N3CCCC(CO)C3)n2)cc1OC` (stereo not shown) [Example 9-65], for which the IC50 was 0.5 to 2 µM.
Still for that read-out and setting: the result for `COc1ccc(-c2cc3ncnn3c(Nc3ccccc3)n2)cc1OC` [Example 9.79] reads less than 0.5 µM; that for `COc1ccc(-c2cc3nccn3c(Nc3ccccc3S(N)(=O)=O)n2)cc1OC` [Example 11-113], less than 0.5 µM; that for `COc1ccc(-c2cc3nccn3c(NCc3ccccc3)n2)cc1OC` [Example 9-10], 0.5 to 2 µM.
For the compound `COc1ccc(-c2cc3nccn3c(Nc3cc(N)ccc3C(N)=O)n2)cc1OC` [Example 11], the IC50 is less than 0.5 µM.
The same measure, in the same setting: the result for `COc1ccc(-c2cc3nccn3c(N3CCC(N4CCCCC4)CC3)n2)cc1OC` [Example 9-63] reads 2 to 10 µM; that for `COc1ccc(-c2cc3nccn3c(Nc3ccc(CC#N)cc3)n2)cc1OC` [Example 11-63], less than 0.5 µM.
The same measure, in the same setting: the result for `COc1ccc(-c2cc3nccn3c(NCCN)n2)cc1OC` [Example 9-81] reads 0.5 to 2 µM; that for `COc1ccc(-c2cc3nccn3c(Nc3ccc(CCC(=O)O)cc3)n2)cc1OC` [Example 11-24], less than 0.5 µM; that for `COc1ccc(-c2cc3nccn3c(Nc3ccc(C(=O)NCC(=O)O)cc3)n2)cc1OC` [Example 11-23], less than 0.5 µM.
Same read-out and setting: the result for `COc1ccc(-c2cc3nccn3c(N3CCN(c4ccccn4)CC3)n2)cc1OC` [Example 9-38] reads 0.5 to 2 µM.
Turning to `COc1ccc(-c2cc3nccn3c(Sc3cc(C)ccc3C)n2)cc1OC` [Example 13-1], the IC50 lay in the range of 0.5 to 2 µM.
With `CCN(CCO)c1ccc(Nc2nc(-c3ccc(OC)c(OC)c3)cc3nccn23)cc1` [Example 11-68], the IC50 is less than 0.5 µM.
Still for that read-out and setting: the result for `CCN(CC)CCNc1ccc(C(N)=O)c(Nc2nc(-c3ccc(OC)c(OC)c3)cc3nccn23)c1` [Example 12] reads less than 0.5 µM.
Consider `COc1ccc(-c2cc3nccn3c(N3CCN(CCO)CC3)n2)cc1OC` [Example 9-51], for which the IC50 lay in the range of 2 to 10 µM.
Same read-out and setting: the result for `COc1ccc(-c2cc3nccn3c(SCC(C)C(=O)O)n2)cc1OC` (stereo not shown) [Example 9-91] reads 0.5 to 2 µM; that for `COc1ccc(-c2cc3ncnn3c(Nc3ccc(/C=C/C(=O)O)cc3)n2)cc1OC` [Example 9-19], less than 0.5 µM; that for `CCSc1nc(-c2ccc3c(c2)OCO3)cc2nccn12` [Example 1-3], 0.5 to 2 µM.
On the same count and under the same terms, the result for `COc1ccc(-c2cc3nccn3c(Nc3ccc(CCCC(=O)O)cc3C(N)=O)n2)cc1OC` [Example 11-105] reads less than 0.5 µM.
On the same count and under the same terms, the result for `CCSc1nc(-c2ccc(OC)c(S(=O)(=O)N3CCN(CCO)CC3)c2)cc2nccn12` [Example 2-3] reads less than 0.5 µM; that for `COc1ccc(-c2cc3nccn3c(Nc3cccc(S(C)(=O)=O)c3)n2)cc1OC` [Example 11-120], less than 0.5 µM; that for `COc1ccc(-c2cc3nccn3c(N(C)CCC(O)c3ccccc3)n2)cc1OC` (stereo not shown) [Example 9-53], less than 0.5 µM.
As to `COc1cc(-c2cc3nccn3c(Nc3ccccc3C(N)=O)n2)ccc1N1CCOCC1` [Example 9-99], the IC50 was less than 0.5 µM.
The same measure, in the same setting: the result for `CCNC(=O)Oc1ccc(-c2cc3nccn3c(SCC)n2)cc1OC` [Example 3-9] reads 0.5 to 2 µM; that for `COc1ccc(-c2cc3nccn3c(N3CCC(O)CC3)n2)cc1OC` [Example 9-69], 0.5 to 2 µM.
The same measure, in the same setting: the result for `CCSc1nc(-c2ccc(OC)c(OCCCN3CCN(C)CC3)c2)cc2nccn12` [Example 5-4] reads 0.5 to 2 µM.
Still for that read-out and setting: the result for `COc1ccc(Nc2nc(-c3ccc(OC)c(OC)c3)cc3nccn23)c(O)c1` [Example 11-93] reads less than 0.5 µM.
As for `COc1ccc(Nc2nc(-c3ccc(OC)c(OC)c3)cc3nccn23)c(C)c1` [Example 11-2], the IC50 was less than 0.5 µM.
In the case of `CCSc1nc(-c2ccc(OC)c(S(=O)(=O)NCCO)c2)cc2nccn12` [Example 2-2], the IC50 was less than 0.5 µM.
Same read-out and setting: the result for `CCC(=O)c1ccc(Nc2nc(-c3ccc(OC)c(OC)c3)cc3nccn23)cc1` [Example 11-35] reads less than 0.5 µM; that for `COc1ccc(-c2cc3nccn3c(N3CCN(C(C)=O)CC3)n2)cc1OC` [Example 9-49], 0.5 to 2 µM.
On the same count and under the same terms, the result for `COc1ccc(-c2cc3nccn3c(N3CCN(c4ccc([N+](=O)[O-])cc4)CC3)n2)cc1OC` [Example 9-35] reads 2 to 10 µM; that for `COc1ccc(-c2cc3nccn3c(Sc3cccc(N)c3)n2)cc1OC` [Example 13-3], less than 0.5 µM; that for `COc1ccc(-c2cc3nccn3c(Nc3ccccc3[N+](=O)[O-])n2)cc1OC` [Example 11-56], less than 0.5 µM.
The same measure, in the same setting: the result for `COc1ccc(-c2cc3nccn3c(NCCN3CCCCC3)n2)cc1OC` [Example 9-82] reads 2 to 10 µM; that for `COc1ccc(-c2cc3nccn3c(Nc3cccc4c3C(=O)NC4=O)n2)cc1OC` [Example 11-3], less than 0.5 µM.
